Here are results for one compound from patent US6468476B1, “Methods for using-co-regulated genesets to enhance detection and classification of gene expression patterns” (Rosetta Inpharmatics, Inc., priority 1998, dated 2002).

The assay concerns genesets (calcineurin-mediated, Gcn4-mediated). The experiment in a line: Response profiles projected onto genesets defined by cluster analysis of 34 experiments. Format: cell-based, Saccharomyces cerevisiae. The following applies: HU at 3.1 mM. As to the method: Yeast (Saccharomyces cerevisiae, Strain YPH499, see, Sikorski and Hieter, 1989, A system of shuttle vectors and yeast host strains designated for efficient manipulation of DNA in Saccharomyces cerevisiae, Genetics 122:19-27) cells were grown in YAPD at 30° C. to an OD600 of 1.0 (±0.2), and total RNA prepared by breaking cells in phenol/chloroform and 0.1% SDS by standard procedures (Ausubel et al., 1995, Current Protocols in Molecular Biology, Greene Publishing and Wiley-Interscience, New York, Ch. 13). Poly(A)^+ RNA was selected by affinity chromatography on oligo-dT cellulose (New England Biolabs) essentially as described in Sambrook et al. (Molecular Cloning—A Laboratory Manual (2nd Ed.), Vol. 1, Cold Spring Harbor Laboratory, Cold Spring Harbor, N.Y., 1989). First strand cDNA synthesis was carried out with 2 μg poly(A)^+ RNA and SuperScript™ II reverse transcriptase (Gibco-BRL) according to the manufacturer's instructions with the following modifications. […]
Fluorescently-labeled cDNAs (2-6 μg) are resuspended in 4×SSC plus 1 μg/μl tRNA as carrier and filtered using […] filters (Millipore, Bedford, Mass.). […] Microarrays are scanned with a fluorescence laser-scanning device as previously described (Schena et al., 1995, Science 270:467-470; Schena et al., 1995, Proc. Natl. Acad. Sci. USA 93:[…]) and the results (including the positions of perturbations) are recorded. […]

Regarding `NC(=O)NO` [HU, Hydroxyurea], the Projected profile entry is reported as “very weak”.
